For this assay, the target named is (recombinant) catalytic domain of human Bub1 (amino acids 704-1085) (Homo sapiens (Human), UniProt O43683). As to the kind of experiment: Bub1 kinase assay (TR-FRET). The class given is biochemical. The conditions noted are these: ATP 10 μM final, peptide substrate 1 μM final, 60 min at 22° C., read-out: Biological Assay: Bub1 kinase assay median IC50. The procedure, abridged: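 Compounds were serially diluted 1:3.4 from 2 mM DMSO stocks and incubated with the enzyme reaction for 60 min at 22° C. The reaction was stopped with EDTA, and biotinylated peptide phosphorylation was read by TR-FRET using Eu anti-mouse IgG, anti-phosphoserine antibody and streptavidin-XL665. IC50 was fitted by 4-parameter logistic to inhibition normalized to no-inhibitor and no-enzyme controls.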
Sequence of (recombinant) catalytic domain of human Bub1 (amino acids 704-1085) (O43683 704-1085): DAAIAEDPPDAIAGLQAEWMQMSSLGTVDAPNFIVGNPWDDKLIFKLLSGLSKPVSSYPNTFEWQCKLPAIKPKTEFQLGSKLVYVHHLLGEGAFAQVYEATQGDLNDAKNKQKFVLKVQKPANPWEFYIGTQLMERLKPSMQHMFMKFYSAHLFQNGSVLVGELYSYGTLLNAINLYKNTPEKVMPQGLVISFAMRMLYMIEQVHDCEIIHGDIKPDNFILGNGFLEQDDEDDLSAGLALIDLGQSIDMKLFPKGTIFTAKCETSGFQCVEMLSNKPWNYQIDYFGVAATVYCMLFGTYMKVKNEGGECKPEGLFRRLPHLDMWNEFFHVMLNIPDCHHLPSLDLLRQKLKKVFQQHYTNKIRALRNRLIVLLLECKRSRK
On the technique in general: Time-resolved FRET reads energy transfer from a long-lived donor to a nearby acceptor.
On to `Cc1cc(CC(=O)Nc2cc(-c3[nH]c4c(c3Nc3ccccc3)C(=O)CCC4)ccn2)on1` [Example 289, 2-(3-methyl-1,2-oxazol-5-yl)-N-{4-[4-oxo-3-(phenylamino)-4,5,6,7-tetrahydro-1H-indol-2-yl]pyridin-2-yl}acetamide], for which the half-maximal inhibitory concentration (IC50) (commonly the concentration at which inhibition is half-maximal) worked out at 15.9 nM.

As for `O=C(Cc1cccs1)Nc1cc(-c2[nH]c3c(c2Nc2ccccc2)C(=O)CCC3)ccn1` [Example 290, N-{4-[4-oxo-3-(phenylamino)-4,5,6,7-tetrahydro-1H-indol-2-yl]pyridin-2-yl}-2-(thiophen-2-yl)acetamide], the half-maximal inhibitory concentration (IC50) was found to be 13.9 nM.

Consider `O=C(Cc1ccsc1)Nc1cc(-c2[nH]c3c(c2Nc2ccccc2)C(=O)CCC3)ccn1` [Example 291, N-{4-[4-oxo-3-(phenylamino)-4,5,6,7-tetrahydro-1H-indol-2-yl]pyridin-2-yl}-2-(thiophen-3-yl)acetamide], for which the IC50 was determined as 28.7 nM.

Turning to `Cn1nccc1CC(=O)Nc1cc(-c2[nH]c3c(c2Nc2ccccc2)C(=O)CCC3)ccn1` [Example 292, 2-(1-methyl-1H-pyrazol-5-yl)-N-{4-[4-oxo-3-(phenylamino)-4,5,6,7-tetrahydro-1H-indol-2-yl]pyridin-2-yl}acetamide], the IC50 was found to be 340 nM.

Consider `CC(=O)Nc1cc(-c2[nH]c3c(c2Nc2ccccc2)C(=O)CC2(CC2)C3)ccn1` [Example 293, N-{4-[4′-oxo-3′-(phenylamino)-1′,4′,5′,7′-tetrahydrospiro[cyclopropane-1,6′-indol]-2′-yl]pyridin-2-yl}acetamide], for which the IC50 came out at 11.2 nM.

Consider `O=C1CC2(CC2)Cc2[nH]c(-c3ccnc(NC(=O)C4CC4)c3)c(Nc3ccccc3)c21` [Example 294, N-{4-[4′-oxo-3′-(phenylamino)-1′,4′,5′,7′-tetrahydrospiro[cyclopropane-1,6′-indol]-2′-yl]pyridin-2-yl}cyclopropanecarboxamide], for which the half-maximal inhibitory concentration (IC50) worked out at 9.17 nM.

For the compound `CC(C)(C)OC(=O)N1CC(C(=O)Nc2cc(-c3[nH]c4c(c3Nc3ccccc3)C(=O)CCC4)ccn2)C1` [Example 295, tert-butyl 3-({4-[4-oxo-3-(phenylamino)-4,5,6,7-tetrahydro-1H-indol-2-yl]pyridin-2-yl}carbamoyl)azetidine-1-carboxylate], the half-maximal inhibitory concentration (IC50) was found to be 38 nM.

Take `O=C1CCCc2[nH]c(-c3ccnc(NC(=O)C4CNC4)c3)c(Nc3ccccc3)c21` [Example 296, N-{4-[4-oxo-3-(phenylamino)-4,5,6,7-tetrahydro-1H-indol-2-yl]pyridin-2-yl}azetidine-3-carboxamide]: the 50% inhibitory concentration (IC50) came out at 3450 nM.

Regarding `CN(CC(=O)Nc1cc(-c2[nH]c3c(c2Nc2ccccc2)C(=O)CCC3)ccn1)C(=O)OC(C)(C)C` [Example 297, tert-butyl methyl[2-oxo-2-({4-[4-oxo-3-(phenylamino)-4,5,6,7-tetrahydro-1H-indol-2-yl]pyridin-2-yl}amino)ethyl]carbamate], the IC50 amounted to 271 nM.

For the compound `CN(CCC(=O)Nc1cc(-c2[nH]c3c(c2Nc2ccccc2)C(=O)CCC3)ccn1)C(=O)OC(C)(C)C` [Example 299, tert-butyl methyl[3-oxo-3-({4-[4-oxo-3-(phenylamino)-4,5,6,7-tetrahydro-1H-indol-2-yl]pyridin-2-yl}amino)propyl]carbamate], the half-maximal inhibitory concentration (IC50) stood at 74.3 nM.

With `CNCCC(=O)Nc1cc(-c2[nH]c3c(c2Nc2ccccc2)C(=O)CCC3)ccn1` [Example 300, N^2-methyl-N-{4-[4-oxo-3-(phenylamino)-4,5,6,7-tetrahydro-1H-indol-2-yl]pyridin-2-yl}-beta-alaninamide], the half-inhibitory concentration (IC50) was 475 nM.

As for `C[C@H](C(=O)Nc1cc(-c2[nH]c3c(c2Nc2ccccc2)C(=O)CCC3)ccn1)N(C)C(=O)OC(C)(C)C` [Example 301, tert-butyl methyl[(2R)-1-oxo-1-({4-[4-oxo-3-(phenylamino)-4,5,6,7-tetrahydro-1H-indol-2-yl]pyridin-2-yl}amino)propan-2-yl]carbamate], the half-maximal inhibitory concentration (IC50) came to 738 nM.

For the compound `CN[C@H](C)C(=O)Nc1cc(-c2[nH]c3c(c2Nc2ccccc2)C(=O)CCC3)ccn1` [Example 302, N^2-methyl-N-{4-[4-oxo-3-(phenylamino)-4,5,6,7-tetrahydro-1H-indol-2-yl]pyridin-2-yl}-D-alaninamide], the IC50 amounted to 480 nM.

For the compound `C[C@@H](C(=O)Nc1cc(-c2[nH]c3c(c2Nc2ccccc2)C(=O)CCC3)ccn1)N(C)C(=O)OC(C)(C)C` [Example 303, tert-butyl methyl[(2S)-1-oxo-1-({4-[4-oxo-3-(phenylamino)-4,5,6,7-tetrahydro-1H-indol-2-yl]pyridin-2-yl}amino)propan-2-yl]carbamate], the half-maximal inhibitory concentration (IC50) came to 1410 nM.

Turning to `CN[C@@H](C)C(=O)Nc1cc(-c2[nH]c3c(c2Nc2ccccc2)C(=O)CCC3)ccn1` [Example 304, N^2-methyl-N-{4-[4-oxo-3-(phenylamino)-4,5,6,7-tetrahydro-1H-indol-2-yl]pyridin-2-yl}-L-alaninamide], the IC50 was 174 nM.

Regarding `CNC(C)(C)C(=O)Nc1cc(-c2[nH]c3c(c2Nc2ccccc2)C(=O)CCC3)ccn1` [Example 306, N^2,2-dimethyl-N-{4-[4-oxo-3-(phenylamino)-4,5,6,7-tetrahydro-1H-indol-2-yl]pyridin-2-yl}alaninamide], the half-inhibitory concentration (IC50) turned out to be 3990 nM.

Take `CN(C)CC(=O)Nc1cc(-c2[nH]c3c(c2Nc2ccccc2)C(=O)CCC3)ccn1` [Example 307, N^2,N^2;-dimethyl-N-{4-[4-oxo-3-(phenylamino)-4,5,6,7-tetrahydro-1H-indol-2-yl]pyridin-2-yl}glycinamide]: the concentration for half-maximal inhibition (IC50) is 208 nM.

Take `O=C(CN1CCCC1)Nc1cc(-c2[nH]c3c(c2Nc2ccccc2)C(=O)CCC3)ccn1` [Example 308, N-{4-[4-oxo-3-(phenylamino)-4,5,6,7-tetrahydro-1H-indol-2-yl]pyridin-2-yl}-2-(pyrrolidin-1-yl)acetamide]: the IC50 stood at 234 nM.

Regarding `CN1CCCC1C(=O)Nc1cc(-c2[nH]c3c(c2Nc2ccccc2)C(=O)CCC3)ccn1` (stereo not shown) [Example 309, 1-methyl-N-{4-[4-oxo-3-(phenylamino)-4,5,6,7-tetrahydro-1H-indol-2-yl]pyridin-2-yl}-prolinamide], the IC50 was determined as 238 nM.

For the compound `CN1C(=O)CCC1C(=O)Nc1cc(-c2[nH]c3c(c2Nc2ccccc2)C(=O)CCC3)ccn1` (stereo not shown) [Example 310, 1-methyl-5-oxo-N-{4-[4-oxo-3-(phenylamino)-4,5,6,7-tetrahydro-1H-indol-2-yl]pyridin-2-yl}-prolinamide], the concentration for half-maximal inhibition (IC50) was found to be 127 nM.

Regarding `O=C1CCC(C(=O)Nc2cc(-c3[nH]c4c(c3Nc3ccccc3)C(=O)CCC4)ccn2)N1` (stereo not shown) [Example 311, 5-oxo-N-{4-[4-oxo-3-(phenylamino)-4,5,6,7-tetrahydro-1H-indol-2-yl]pyridin-2-yl}-prolinamide], the IC50 is 40.6 nM.

With `COC(=O)Nc1cc(-c2[nH]c3c(c2Nc2cccc(F)c2)C(=O)CCC3)ccn1` [Example 312, methyl (4-{3-[(3-fluorophenyl)amino]-4-oxo-4,5,6,7-tetrahydro-1H-indol-2-yl}pyridin-2-yl)carbamate], the IC50 was found to be 19.9 nM.

As for `O=C1CCCc2[nH]c(-c3ccnc(NC(=O)C4CC4)c3)c(Nc3ccc(F)cc3)c21` [Example 314, N-(4-{3-[(4-fluorophenyl)amino]-4-oxo-4,5,6,7-tetrahydro-1H-indol-2-yl}pyridin-2-yl)cyclopropanecarboxamide], the concentration for half-maximal inhibition (IC50) was 47.5 nM.

For the compound `CC(=O)Nc1cc(-c2[nH]c3c(c2Nc2ccc(F)c(F)c2)C(=O)CCC3)ccn1` [Example 315, N-(4-{3-[(3,4-difluorophenyl)amino]-4-oxo-4,5,6,7-tetrahydro-1H-indol-2-yl}pyridin-2-yl)acetamide], the IC50 amounted to 101 nM.

As to `O=C1CCCc2[nH]c(-c3ccnc(NC(=O)C4CC4)c3)c(Nc3ccc(F)c(F)c3)c21` [Example 316, N-(4-{3-[(3,4-difluorophenyl)amino]-4-oxo-4,5,6,7-tetrahydro-1H-indol-2-yl}pyridin-2-yl)cyclopropanecarboxamide], the 50% inhibitory concentration (IC50) came out at 82.3 nM.

`CC(=O)Nc1cc(-c2[nH]c3c(c2Nc2ccccc2)C(=O)CC(C(C)C)C3)ccn1` (stereo not shown) [Example 317, N-{4-[4-oxo-3-(phenylamino)-6-(propan-2-yl)-4,5,6,7-tetrahydro-1H-indol-2-yl]pyridin-2-yl}acetamide]: the IC50 amounted to 10.9 nM.

For the compound `CC(C)C1CC(=O)c2c([nH]c(-c3ccnc(NC(=O)C4CC4)c3)c2Nc2ccccc2)C1` (stereo not shown) [Example 318, N-{4-[4-oxo-3-(phenylamino)-6-(propan-2-yl)-4,5,6,7-tetrahydro-1H-indol-2-yl]pyridin-2-yl}cyclopropanecarboxamide], the half-maximal inhibitory concentration (IC50) was 9.71 nM.

Consider `CC(=O)Nc1cc(-c2[nH]c3c(c2Nc2cccc(F)c2)C(=O)CC(C(C)C)C3)ccn1` (stereo not shown) [Example 319, N-{4-[3-[(3-fluorophenyl)amino]-4-oxo-6-(propan-2-yl)-4,5,6,7-tetrahydro-1H-indol-2-yl]pyridin-2-yl}acetamide], for which the IC50 came out at 8.69 nM.

As for `CC(C)C1CC(=O)c2c([nH]c(-c3ccnc(NC(=O)C4CC4)c3)c2Nc2cccc(F)c2)C1` (stereo not shown) [Example 320, N-{4-[3-[(3-fluorophenyl)amino]-4-oxo-6-(propan-2-yl)-4,5,6,7-tetrahydro-1H-indol-2-yl]pyridin-2-yl}cyclopropanecarboxamide], the 50% inhibitory concentration (IC50) came out at 8.04 nM.

Take `CC(=O)Nc1cc(-c2[nH]c3c(c2Nc2ccc(F)cc2)C(=O)CC(C(C)C)C3)ccn1` (stereo not shown) [Example 321, N-{4-[3-[(4-fluorophenyl)amino]-4-oxo-6-(propan-2-yl)-4,5,6,7-tetrahydro-1H-indol-2-yl]pyridin-2-yl}acetamide]: the IC50 turned out to be 11.2 nM.

On to `CC(C)C1CC(=O)c2c([nH]c(-c3ccnc(NC(=O)C4CC4)c3)c2Nc2ccc(F)cc2)C1` (stereo not shown) [Example 322, N-{4-[3-[(4-fluorophenyl)amino]-4-oxo-6-(propan-2-yl)-4,5,6,7-tetrahydro-1H-indol-2-yl]pyridin-2-yl}cyclopropanecarboxamide], for which the concentration for half-maximal inhibition (IC50) is 12.7 nM.

(Values after patent US10428044B2, “3-amino-1,5,6,7-tetrahydro-4H-indol-4-ones” (Bayer Pharma Aktiengesellschaft, priority 2014, dated 2019).)
